In ChEMBL document CHEMBL5365551, “Fragment-Based NMR Screening of the BPTF PHD Finger Methyl Lysine Reader Leads to the First Small-Molecule Inhibitors” (ACS Med Chem Lett, 2023):
The source made the active and inactive calls. The calls are words filed in the database; no cut-off is given here.

Legend:
[1] = molecular target: T1, Nucleosome-remodeling factor subunit BPTF (Homo sapiens, UniProt Q12830); test: Inhibition of biotinylated-H3K4me2 binding to N-terminal His9 tagged human BPTF isoform 2 PHD (2722 to 2781 residues) expressed in Escherichia coli BL21 Star (DE3) measured after 1 hr by Alphascreen assay
[2] = molecular target: T1, Nucleosome-remodeling factor subunit BPTF; test: Binding affinity to N-terminal His9 tagged human BPTF isoform 2 PHD (2722 to 2781 residues) expressed in Escherichia coli BL21 Star (DE3) at 400 uM by SPR assay
[3] = molecular target: T1, Nucleosome-remodeling factor subunit BPTF; test: Binding affinity to N-terminal His9 tagged human BPTF isoform 2 PHD (2722 to 2781 residues) expressed in Escherichia coli BL21 Star (DE3) assessed as reduction in proton resonance intensity at 100 uM by 1H CPMG NMR assay relative to control; set-up: scale not given: the % may be the effect or the level left
[4] = molecular target: T1, Nucleosome-remodeling factor subunit BPTF; test: Binding affinity to N-terminal His9 tagged human BPTF isoform 2 PHD (2722 to 2781 residues) expressed in Escherichia coli BL21 Star (DE3) assessed as change in chemical shift perturbations at 1 mM by 1H,15N HSQC NMR spectroscopy
[5] = molecular target: Lysine-specific demethylase 5A (Homo sapiens) (UniProt P29375); test: Binding affinity to N-terminal His-tagged human KDM5A PHD3 (1486 to 1690 residues) expressed in Escherichia coli BL21 Star (DE3) assessed as reduction in proton resonance intensity at 100 uM by 1H CPMG NMR assay relative to control; set-up: scale not given: the % may be the effect or the level left
Sequence of Lysine-specific demethylase 5A (Homo sapiens) (P29375 whole entry, the tested form may be a part, canonical isoform): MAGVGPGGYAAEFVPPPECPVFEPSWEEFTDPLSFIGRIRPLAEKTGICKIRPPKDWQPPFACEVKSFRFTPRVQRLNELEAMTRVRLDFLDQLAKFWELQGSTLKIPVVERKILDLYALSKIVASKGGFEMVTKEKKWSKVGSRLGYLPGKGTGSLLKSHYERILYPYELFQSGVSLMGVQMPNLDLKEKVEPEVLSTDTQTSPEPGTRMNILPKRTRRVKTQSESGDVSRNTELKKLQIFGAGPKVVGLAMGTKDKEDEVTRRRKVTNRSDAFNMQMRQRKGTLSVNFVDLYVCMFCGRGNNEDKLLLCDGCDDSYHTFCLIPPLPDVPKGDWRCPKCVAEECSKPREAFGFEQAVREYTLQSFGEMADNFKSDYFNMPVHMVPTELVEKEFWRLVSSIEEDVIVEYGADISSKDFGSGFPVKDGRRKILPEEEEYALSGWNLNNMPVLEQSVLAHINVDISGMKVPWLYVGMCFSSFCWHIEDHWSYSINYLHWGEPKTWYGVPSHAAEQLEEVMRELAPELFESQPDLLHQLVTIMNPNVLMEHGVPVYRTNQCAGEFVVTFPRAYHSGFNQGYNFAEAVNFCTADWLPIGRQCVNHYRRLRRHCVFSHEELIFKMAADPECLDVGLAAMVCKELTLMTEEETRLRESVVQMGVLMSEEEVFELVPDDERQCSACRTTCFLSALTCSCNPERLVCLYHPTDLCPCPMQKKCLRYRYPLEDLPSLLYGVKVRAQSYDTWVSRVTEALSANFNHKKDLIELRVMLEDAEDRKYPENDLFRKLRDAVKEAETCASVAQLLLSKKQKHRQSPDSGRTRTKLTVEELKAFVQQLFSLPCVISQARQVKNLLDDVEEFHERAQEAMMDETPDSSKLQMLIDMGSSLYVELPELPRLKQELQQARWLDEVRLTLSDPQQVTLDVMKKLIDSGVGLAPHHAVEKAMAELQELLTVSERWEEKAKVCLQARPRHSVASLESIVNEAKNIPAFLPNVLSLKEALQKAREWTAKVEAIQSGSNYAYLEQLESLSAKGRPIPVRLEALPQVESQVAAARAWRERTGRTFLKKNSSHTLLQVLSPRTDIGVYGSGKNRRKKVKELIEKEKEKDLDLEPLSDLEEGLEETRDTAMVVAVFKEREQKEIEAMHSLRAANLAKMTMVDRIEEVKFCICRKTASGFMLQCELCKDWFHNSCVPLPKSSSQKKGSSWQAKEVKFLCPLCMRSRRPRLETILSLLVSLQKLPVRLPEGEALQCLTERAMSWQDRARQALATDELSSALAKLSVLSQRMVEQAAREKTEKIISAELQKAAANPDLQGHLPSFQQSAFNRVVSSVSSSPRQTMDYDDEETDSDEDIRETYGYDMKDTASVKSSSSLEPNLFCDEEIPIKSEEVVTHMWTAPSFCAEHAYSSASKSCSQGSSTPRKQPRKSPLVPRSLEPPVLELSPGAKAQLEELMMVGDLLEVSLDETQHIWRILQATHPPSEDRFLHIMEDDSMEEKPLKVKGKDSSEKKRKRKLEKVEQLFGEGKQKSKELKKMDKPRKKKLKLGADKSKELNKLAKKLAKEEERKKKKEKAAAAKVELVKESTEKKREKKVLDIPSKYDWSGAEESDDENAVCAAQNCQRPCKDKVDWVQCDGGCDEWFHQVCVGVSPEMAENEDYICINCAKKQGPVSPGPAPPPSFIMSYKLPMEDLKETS

[6] = molecular target: T1, Nucleosome-remodeling factor subunit BPTF; test: Inhibition of biotinylated-H3K4me2 binding to N-terminal His9 tagged human BPTF isoform 2 PHD (2722 to 2781 residues) expressed in Escherichia coli BL21 Star (DE3) at 2 mM measured after 1 hr by Alphascreen assay relative to control

Row | Compound | IC50 ([1]; read-out: IC50) [µM] | Activity [2] | Activity [3] [%] | Activity [5] [%] | also measured
1 | c1ccc(Nc2ccc(N3CCNCC3)nn2)nc1 | 20 |  |  |  | 
2 | NCC1CC(=O)N(c2ccc(F)c(F)c2)C1 (centres undefined) | 220 |  |  |  | 
3 | NCC1CCN(c2cccc(F)c2)C1 (centres undefined) | 380 | Active | 65 | < 20 | Activity [4]: Active
4 | Cc1ccc(NC(=O)NCC(C)N2CCCC2)cc1 (centres undefined) |  |  | 35 | < 20 | 
5 | CCS(=O)(=O)N1CCN(c2ccc(Nc3ccc(C)cc3)nn2)CC1 |  |  |  |  | inhibition [6]: 78%
6 | c1ccc(N2CC3CNCC3C2)cc1 (centres undefined) | 150 |  |  |  | 
7 | CC(=O)N1CCN(c2ccc(Nc3ccc(C)cc3)nn2)CC1 | 1200 |  |  |  | 
8 | Cc1ccc(Nc2ccc(Cl)nn2)cc1 |  |  |  |  | IC50 [1]: Not Determined(Insoluble)
9 | COC1CN(c2nc3ccccc3s2)C1 |  | Active | 30 | < 20 | inhibition [6]: 70%
10 | c1ccc2nc(N3CCOCC3)ccc2c1 |  | inactive | 35 | < 20 | 
11 | O=C(CC12CC3CC(CC(C3)C1)C2)N1CCCC1 | 500 | inactive | 25 | > 20 | 
12 | Cc1cccc(CSC2=NCCN2)c1 |  | Active | 50 | < 20 | inhibition [6]: 83%
13 | Clc1ccc(N2CCNCC2)nn1 | 750 |  |  |  | 
14 | Cc1ccc(Nc2ccc(N3CCNCC3)nn2)nc1 | 30 |  |  |  | 
15 | Cc1ccc(Nc2ccc(N3CCNCC3)nn2)cc1 | 300 | Active | 50 | < 20 | Activity [4]: inactive
16 | Nc1ccnc2c1CCCC2 |  |  |  |  | inhibition [6]: 70%
17 | Fc1ccc(Nc2ccc(N3CCNCC3)nn2)cc1 | 25 |  |  |  | Activity [4]: inactive
18 | Nc1c2c(nc3c1CCC3)CCC2 |  |  |  |  | inhibition [6]: 60%

The next lines start with results.

Row | IC50 ([1]; read-out: IC50) [µM] | Activity [2] | Activity [3] [%] | Activity [5] [%] | Compound | also measured
19 | 63 |  |  |  | N#Cc1c(N)sc2c1CCCCC2 | 
20 | 380 |  |  |  | CC(=O)N1CCc2c(sc(N)c2C#N)C1 | 
21 | 130 | inactive | 60 | > 20 | N#Cc1c(N)sc2c1CCCC2 | Activity [4]: Active
22 |  | inactive | 25 | < 20 | Cn1nc2c(c1CNC(=O)c1ccc3c(c1)OCO3)CCC2 | inhibition [6]: 71%
23 | 590 | Active | 50 | < 20 | Nc1c2c(nc3c1CCC3)CCCC2 [IPIDACRINE] | 
